Reference: PubChem BioAssay AID602322 (The Scripps Research Institute Molecular Screening Center, 2012)
Activity calls are given as the source filed them. How the calls were made is not given here.

Columns and labels:
[1] = target: Diacylglycerol lipase-beta (Mus musculus) (UniProt Q91WC9); assay: ABHD6 antitarget inhibition potency, dose response, selectivity assay for DAGLb inhibitor project, biochemical, gel-based competitive ABPP, fluorescent probe, mouse (AID 602322); settings: proteome, DAGLb
[2] = target: Monoacylglycerol lipase ABHD6 (Mus musculus) (UniProt Q8R2Y0); assay: as above; settings: proteome
Monoacylglycerol lipase ABHD6 (Mus musculus), sequence (Q8R2Y0 whole entry, looked up): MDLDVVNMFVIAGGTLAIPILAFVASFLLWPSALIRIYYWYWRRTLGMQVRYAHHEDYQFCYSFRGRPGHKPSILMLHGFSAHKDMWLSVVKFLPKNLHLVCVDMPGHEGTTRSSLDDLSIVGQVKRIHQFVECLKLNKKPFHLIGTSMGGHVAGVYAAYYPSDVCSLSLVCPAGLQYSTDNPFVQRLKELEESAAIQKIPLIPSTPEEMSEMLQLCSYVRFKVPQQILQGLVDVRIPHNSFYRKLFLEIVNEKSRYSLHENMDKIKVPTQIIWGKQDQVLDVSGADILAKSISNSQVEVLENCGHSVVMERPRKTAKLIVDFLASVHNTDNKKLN

Diacylglycerol lipase-beta (Mus musculus), sequence (Q91WC9 whole entry, looked up): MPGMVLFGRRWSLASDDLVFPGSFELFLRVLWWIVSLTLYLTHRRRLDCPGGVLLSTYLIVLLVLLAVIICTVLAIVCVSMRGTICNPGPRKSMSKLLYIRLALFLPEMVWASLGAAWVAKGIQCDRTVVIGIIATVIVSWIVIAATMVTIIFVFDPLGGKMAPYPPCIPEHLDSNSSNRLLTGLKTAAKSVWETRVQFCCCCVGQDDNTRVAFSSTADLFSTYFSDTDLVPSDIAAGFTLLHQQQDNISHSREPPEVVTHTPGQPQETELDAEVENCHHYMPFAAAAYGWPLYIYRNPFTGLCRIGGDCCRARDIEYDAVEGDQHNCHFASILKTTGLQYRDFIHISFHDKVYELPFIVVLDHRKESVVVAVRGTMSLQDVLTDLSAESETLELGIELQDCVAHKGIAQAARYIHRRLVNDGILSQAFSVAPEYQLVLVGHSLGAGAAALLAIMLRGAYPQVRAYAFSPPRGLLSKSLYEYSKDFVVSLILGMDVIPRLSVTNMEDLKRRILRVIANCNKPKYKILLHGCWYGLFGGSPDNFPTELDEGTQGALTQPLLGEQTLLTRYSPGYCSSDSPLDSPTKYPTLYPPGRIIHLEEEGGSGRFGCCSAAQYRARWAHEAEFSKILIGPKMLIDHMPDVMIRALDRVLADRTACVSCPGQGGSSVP

O=C(N1CCCCC1c1ccccc1)n1cc(-c2ccc(-c3cccc(CO)c3)cc2)nn1 (stereo unspecified)
IC50 [1]: > 100 nM (inactive)

COc1ccc(-c2ccc(-c3cn(C(=O)N4CCCCC4c4ccccc4)nn3)cc2)cc1 (stereo unspecified)
IC50 [1]: > 3330 nM (inactive) | IC50 [2]: 38 nM

O=C(N1CCCCC1c1ccccc1)n1cc(-c2ccc(-c3ccccc3)cc2)nn1 (stereo unspecified)
IC50 [1]: > 100 nM (inactive) | IC50 [2]: 9.9 nM

O=C(O)c1cccc(-c2ccc(-c3cn(C(=O)N4CCCCC4Cc4ccccc4)nn3)cc2)c1 (stereo unspecified)
IC50 [1]: > 100 nM (inactive)
